{"source": "paper PMC4833932", "about": "“Cytotoxicity and cell cycle arrest induced by andrographolide lead to programmed cell death of MDA-MB-231 breast cancer cell line” (Journal of Biomedical Science, 2016)", "key": {"MDA-MB-231 cells [1]": {"test_system": "MDA-MB-231 cells", "assay": "Cell proliferation assay (trypan blue)", "type": "cell-based, human", "conditions": "30 μM, 48 h", "experimental": "MDA-MB-231 cells harvested from exponential growth phase were seeded at a density of 1 × 10^4/well in a 24-well culture plate. After 24 h, the cells were treated with varying concentrations of andrographolide (15, 30, 45 and 60 μM) or DMSO (0.1 %, vehicle control) for 12, 24, 36 and 48 h. After treatment, cells were harvested by trypsinization, stained with 0.4 % trypan blue and counted in a hemocytometer. Cell proliferation index PI, was calculated as PI = Ct/C0; where Ct = cell count at time t and C0 = cell count at the time of treatment."}, "MDA-MB-231 cells [2]": {"test_system": "MDA-MB-231 cells", "assay": "Cell cycle analysis by flow cytometry (PI)", "type": "cell-based, human", "conditions": "30 μM", "experimental": "In order to study the stages of the cell cycle affected by andrographolide, flow cytometry analysis of cell cycle was carried out. Cells were seeded in a 6-well tissue culture plate at an initial density of 2.5 × 10^5 cells per well in the presence of andrographolide (30 μM) or vehicle (DMSO) for 24, 36 and 48 h. The treatment medium and the attached cells were collected after trypsinisation and centrifugation at 1000 × g. Cells were then fixed with 70 % ethanol at 4 °C overnight. The resulted pellets were resuspended in PBS having 100 μg/ml RNAse A (Sigma-Aldrich, USA) and 50 μg/ml PI, and then kept in dark at 25 °C for 30 min. Cell cycle phase distribution were monitored on the BD FACSVerse™ (Becton Dickinson, USA) and analyzed by using FACSuite™ software. A total of 10,000 events were recorded."}, "[3]": {"assay": "In vivo pharmacokinetic study, plasma LC-MS/MS", "design": "species or system Female BALB/c mice", "conditions": "for Plasma exposure at 24 h: LLOQ 2.44 ng/ml; for bioavailability: PO 50 mg/kg vs IV 5 mg/kg; for half-life: read-out: Terminal T½ (converted); for AUC(0-t): read-out: AUC(0-8)", "experimental": "Female BALB/c mice, being divided into two groups (n = 6 per group), received andrographolide via oral route (PO) as well as intravenous (IV) bolus dosing at 50 mg/kg (equivalent to 142.73 μmol/kg and dose volume, 10 ml/kg) and 5 mg/kg body weight (equivalent to 14.27 μmol/kg and dose volume, 5 ml/kg) respectively. The formulation was prepared in 10 % DMSO, 10 % Cremophor and 80 % 1/15 (M) Na2HPO4 with dose volume of 10 ml/kg and 5 ml/kg for oral and IV respectively. ~50 μl of blood samples were collected at each time points (0.25, 0.5, 1, 2, 4, 8 and 24 h for PO and 0.08, 0.25, 0.5, 1, 2, 4, 8 and 24 h for IV) into heparinized capillary tubes by piercing the saphenous vein using a disposable needle (26 G). Blood samples were centrifuged at 3000 rpm for 10 min at 4 °C. The resulting plasma samples were stored at –80 °C until bioanalysis.\nAnalysis of plasma samples were performed using a liquid chromatography tandem mass spectroscopy (API-4000, AB Sciex Instruments, Foster City, CA) attached with the ESI source. The LC system consisted of LC-20ADvp pump (Shimadzu, Kyoto, Japan) and CTC PAL (HTS) autosampler. Liquid chromatography was performed using a Luna C18 column (2 × 30 mm, 5 μ particle) of Phenomenex (Torrance, CA) and the mobile phase consisted of 2 mM ammonium acetate in water (A) and 80: 20 (v/v) MeCN: Solvent A (B). The gradient elution program was as follows: first 60 s only A for washing, then 60 s for gradient up to 100 % B and it was continued for next 60 s. Total run time was 3.5 min with a flow of 0.8 ml/min at room temperature. Samples were detected and quantified using Analyst 1.4.2. Internal standard used was diclofenac.\nThe concentrations of test samples were determined from the standard curve prepared by spiking 2 μl of working stock in 98 μl of blank plasma along with the quality control samples (low, mid and high). The linear equation of the standard curve was obtained by regressional analysis of the peak area ratio of analyte to internal standard versus nominal concentration with a weighting factor of 1/X2. The calibration curve was linear in the concentration range 2.44 (LLOQ) to 1250 ng/ml."}, "MDA-MB-231 cells [4]": {"test_system": "MDA-MB-231 cells", "assay": "Mitochondrial membrane potential (Rhodamine 123)", "type": "cell-based, human", "conditions": "15-60 μM, 24 and 48 h", "experimental": "The loss of mitochondrial membrane potential (∆ψm) (MMP) is a primary event leading to phosphatidyl serine externalization, which corresponds with the activation of caspase. MMP was quantified by the incorporation of a fluorescent dye Rhodamine 123 [25]. Cells (1 × 10^4 per well) were incubated with different concentrations (15, 30, 45 or 60 μM) of andrographolide in the absence or presence of NAC for 24 and 48 h. Positive control was obtained with a mitochondrial uncoupling agent, carbonyl cyanide m-chloro-phenylhydrazone (CCCP; 20 μM) for 30 min. The treated cells were washed twice with chilled PBS before incubation with Rhodamine 123 (5 μg/ml) and kept at 37 °C for 15 min. The fluorescence intensity was detected using an emission filter of 535 nm. Same experiment was also performed using MCF-7 cells."}, "caspase-9 [5]": {"test_system": "caspase-9", "assay": "Caspase activity assay (fluorometric, LEHD-AFC) in MDA-MB-231 cells", "type": "cell-based, human", "conditions": "0-60 μM, 24 h", "experimental": "(§1) MDA-MB-231 cells (1 × 10^5 cells per ml) were incubated with different concentrations of andrographolide (0, 15, 30, 45 and 60 μM) for 24 h and then centrifuged to detect caspase-3 and caspase-9 activation using caspase fluoremetric protease assay kit following manufacturer’s instructions. Briefly, cells were lysed in RIPA buffer supplemented with protease inhibitor cocktail and 10 μl lysate were diluted with 10 μl substrate buffer (1:1) containing 100 μM each of fluorogenic substrate, DEVD-AFC and LEHD-AFC for caspase-3 and caspase-9 respectively, and was then incubated for 90 min at 37 °C. Reactions were stopped using 0.2 mM sodium phosphate buffer (pH 7.5) and fluorescence was quantified by a spectrofluorometer (excitation, 405 nm; emission, 505 nm). Experiment was also performed using MCF-7 cells."}, "caspase-3": {"test_system": "caspase-3", "assay": "Caspase activity assay (fluorometric, DEVD-AFC) in MDA-MB-231 cells", "type": "cell-based, human", "conditions": "0-60 μM, 24 h", "experimental": "as §1"}, "caspase-9 [6]": {"test_system": "caspase-9", "assay": "Caspase activity assay in MCF-7 cells", "type": "cell-based, human", "conditions": "MCF-7, 0-80 μM, 24 h", "experimental": "as §1"}, "[7]": {"conditions": "female, BALB/c, mouse, plasma, iv, 5 mg/kg, IV at 5 mg/kg, female BALB/c mice"}, "[8]": {"conditions": "female, BALB/c, mouse, plasma, po, 50 mg/kg, PO at 50 mg/kg, female BALB/c mice"}, "[9]": {"conditions": "mouse, plasma, IV at 5 mg/kg, female BALB/c mice"}, "[10]": {"conditions": "mouse, plasma, PO at 50 mg/kg, female BALB/c mice"}}, "note": "Read-outs that look alike come from different tables or passages of the source."}
{"smiles": "C=C1CC[C@@H]2[C@](C)(CO)[C@H](O)CC[C@@]2(C)[C@@H]1C/C=C1/C(=O)OC[C@H]1O", "note": "[andrographolide]", "values": [{"measurement": "cell death", "setting": "MDA-MB-231 cells [1]", "value": "~ 50%"}, {"measurement": "decrease in the cell number at the G1/G0 phase over the control", "setting": "MDA-MB-231 cells [2]; 24 h", "value": "24.75 ± 0.5", "unit": "%"}, {"measurement": "increase in S population over the untreated control", "setting": "MDA-MB-231 cells [2]; 24 h", "value": "9.91 ± 0.3", "unit": "%"}, {"measurement": "decrease in the cell number at the G1/G0 phase over the control", "setting": "MDA-MB-231 cells [2]; 36 h", "value": "28.86 ± 0.7", "unit": "%"}, {"measurement": "increase in S population over the untreated control", "setting": "MDA-MB-231 cells [2]; 36 h", "value": "14.21 ± 0.2", "unit": "%"}, {"measurement": "decrease in the cell number at the G1/G0 phase over the control", "setting": "MDA-MB-231 cells [2]; 48 h", "value": "33.53 ± 1.1", "unit": "%"}, {"measurement": "Plasma exposure at 24 h", "setting": "[3]; IV arm, 5 mg/kg", "value": "below lower limit of quantitation"}, {"measurement": "bioavailability", "setting": "[3]; female BALB/c mice", "value": "9.27 ± 1.69", "unit": "%"}, {"measurement": "Plasma exposure at 24 h", "setting": "[3]; PO arm, 50 mg/kg", "value": "below lower limit of quantitation"}, {"measurement": "CL", "setting": "[3]; PO at 50 mg/kg, female BALB/c mice", "value": "62.68 ± 12.10", "unit": "L/h/kg"}, {"measurement": "AUC(0-inf)", "setting": "[3]; [7]", "value": "2.51 ± 0.56", "unit": "µM·h"}, {"measurement": "clearance", "setting": "[3]; [7]", "value": 91.8, "unit": "mL/min/kg"}, {"measurement": "half-life", "setting": "[3]; [7]", "value": "112 ± 12.6", "unit": "min"}, {"measurement": "bioavailability", "setting": "[3]; female, BALB/c, mouse, plasma, oral, 50 mg/kg, female BALB/c mice, read-out: Bioavailability", "value": "< 10", "unit": "%"}, {"measurement": "AUC(0-inf)", "setting": "[3]; [8]", "value": "2.33 ± 0.42", "unit": "µM·h"}, {"measurement": "half-life", "setting": "[3]; [8]", "value": "198 ± 21", "unit": "min"}, {"measurement": "C0", "setting": "[3]; [9]", "value": "14.6 ± 4.04", "unit": "µM"}, {"measurement": "AUC(0-t)", "setting": "[3]; [9]", "value": "1.96 ± 0.38", "unit": "µM·h"}, {"measurement": "Cmax", "setting": "[3]; [10]", "value": "730 ± 170", "unit": "nM"}, {"measurement": "Tmax", "setting": "[3]; [10]", "value": "25.2 ± 8.4", "unit": "min"}, {"measurement": "AUC(0-t)", "setting": "[3]; [10]", "value": "1.92 ± 0.36", "unit": "µM·h"}, {"measurement": "MMP level", "setting": "MDA-MB-231 cells [4]", "value": "significant (P < 0.01) drop of MMP level"}, {"measurement": "activation of caspase-9", "setting": "caspase-9 [5]", "value": "gradual dose-dependent activation"}, {"measurement": "activation of caspase-3", "setting": "caspase-3", "value": "gradual dose-dependent activation"}, {"measurement": "caspase-9 (initiator caspase) activation", "setting": "caspase-9 [6]", "value": "activation in a dose-dependent manner"}]}
